Measurements published in ChEMBL document CHEMBL4673312, “Optimization of piperidine constructed peptidyl derivatives as proteasome inhibitors” (Bioorg Med Chem, 2021).

Experiment: in vitro
Settings: rat, plasma

Compound	half-life at 2 µM
CC(C)(C)CNC(=O)C[C@H](NC(=O)[C@H](CC(=O)NCC(C)(C)C)NC(=O)N1CCC(C(=O)Nc2cccnc2)CC1)C(=O)NCc1ccccc1Cl	72 min
CC(C)(C)CNC(=O)C[C@H](NC(=O)N1CCC(NC(=O)c2ccc(F)cc2)CC1)C(=O)N[C@@H](CCc1ccccc1)C(=O)NCc1ccccc1Cl	91.5 min
